Results: the CheMixHub viscosity set

Assay: xn = mol fraction of the nth substance listed

CCOC(C)=O + CO
viscosity [mPa·s]
Conditions	293.15 K	298.15 K	303.15 K	308.15 K	313.15 K	318.15 K	323.15 K
100 kPa, x2 = 0.4071	0.4216	0.4015	0.384	0.365	0.3527	0.3431	0.3216
100 kPa, x2 = 0.6468	0.4612	0.4319	0.4112	0.3868	0.3681	0.3501	0.3336
100 kPa, x2 = 0.8048	0.499	0.4697	0.4463	0.4182	0.3988	0.3758	0.3564
100 kPa, x2 = 0.9168	0.5454	0.5164	0.4893	0.4559	0.4327	0.4083	0.3858
101 kPa, x1 = 0.065	0.549	–	0.477	–	0.424	–	0.378
101 kPa, x1 = 0.115	0.528	–	0.462	–	0.413	–	0.368
101 kPa, x1 = 0.306	0.475	–	0.422	–	0.377	–	0.342
101 kPa, x1 = 0.321	0.471	–	0.418	–	0.376	–	0.341
101 kPa, x1 = 0.445	–	–	–	–	0.364	–	0.333
101 kPa, x1 = 0.598	0.444	–	0.397	–	0.36	–	0.328
101 kPa, x1 = 0.797	–	–	–	–	0.362	–	0.332

CS(=O)(=O)[O-].C[N+](C)(CCO)CCO + CCO
Conditions	viscosity [mPa·s]
298.15 K, 101.33 kPa, x1 = 0.8954	947.5

COC(=O)CC(C)=O + CCOC(=O)c1ccccc1
viscosity [mPa·s], 101.33 kPa
Conditions	x1 = 0.0992	x1 = 0.2023	x1 = 0.3004	x1 = 0.399	x1 = 0.4991	x1 = 0.5978	x1 = 0.6966	x1 = 0.7979	x1 = 0.8986
298.15 K	1.834	1.796	1.757	1.729	1.7	1.653	1.633	1.598	1.583
303.15 K	1.661	1.627	1.593	1.571	1.543	1.501	1.484	1.452	1.44
308.15 K	1.514	1.484	1.453	1.434	1.408	1.373	1.356	1.328	1.316

[O-][Cl+3]([O-])([O-])O[Cl+3]([O-])([O-])[O-] + O
293.15 K, 101.33 kPa
Conditions	viscosity [mPa·s]
x1 = 0.428	1.179
x1 = 0.46	0.949
x1 = 0.474	0.893
x1 = 0.491	0.821
x1 = 0.499	0.796
x1 = 0.51	0.762
x1 = 0.519	0.754
x1 = 0.602	0.726
x1 = 0.711	0.714
x1 = 0.787	0.713
x1 = 0.818	0.709
x1 = 0.906	0.708

CCOc1ccccc1 + CCCCCCCCCO
viscosity [mPa·s], 101.3 kPa
Conditions	x1 = 0.1012	x1 = 0.2001	x1 = 0.3006	x1 = 0.4009	x1 = 0.5013	x1 = 0.6023	x1 = 0.7018	x1 = 0.8005	x1 = 0.8997
293.15 K	8.86	6.725	5.095	3.858	2.948	2.293	1.853	1.578	1.424
298.15 K	7.33	5.611	4.298	3.299	2.57	2.039	1.692	1.488	1.361
308.15 K	5.241	4.17	3.295	2.614	2.089	1.697	1.394	1.17	1.023
318.15 K	3.906	3.16	2.525	2.033	1.654	1.371	1.152	0.9714	0.8556

CCCC[P+](CC)(CCCC)CCCC.[Br-] + O
Conditions	viscosity [mPa·s]
303.15 K, 101 kPa, x1 = 0.008931	1.225
